Laboratory results taken from patent US20260271949A1, “PHOTOSENSITIZER COMPOSITIONS, DEVICES, AND METHODS OF USE FOR SURFACE SANITIZATION OF PROCESSED FOOD PRODUCTS” (ONDINE INTERNATIONAL AG, priority 2023, published 2026).

What was measured:
S. enterica biofilms [1] = assay: MBEC (turbidity assay), biofilm recovery plate; assay type: cell-based, Salmonella enterica; details: Blue 470 nm (Erythrosin B: Green 527 nm)
Protocol: (§1) The saturated bacterial cultures were diluted 1:10,000 to an approximate density of 10^5 CFU/mL. Density was confirmed by an inoculum check. The inoculum was poured into a sterile reagent reservoir. Using a multi-channel pipette, 200 μL of the ~105 inoculum was added to each well from rows A to G of the MBEC™ device, as indicated in FIGS. 2A-2C (12 devices per organism were tested; 4 devices per study day), 200 μL of OSB was added to row H to act as sterility controls (SC). The pegged lid was then placed into the microtiter plate and sealed in a plastic bag.
(§2) The pegs of the MBEC lid were rinsed for 120 seconds.
(§3) Using additional sterile 96-well receiver plates, recovery plates were prepared (one per MBEC lid) containing 225 μL per well of the neutralizer/recovery broth, as described above. The MBEC lids were transferred to the recovery broth, and the plates (with the pegged lids) were transferred into a stainless-steel insert tray, which sat in the water of a bath sonicator. Sonication was performed on high for 30 minutes to dislodge surviving biofilm. The pegged lid was then removed and discarded.
(§4) 125 μL of OSB was added to each well of the recovery plates to top back up to 225 µL per well. The contents of the wells were mixed by pipetting up and down.

MRSA biofilms [2] = assay: MBEC (turbidity assay), biofilm recovery plate; assay type: cell-based, Staphylococcus aureus; details: Blue 470 nm (Erythrosin B: Green 527 nm)
Protocol: as §1, §2, §3, §4

MRSA biofilms [3] = assay: Quantitative determination of MBEC (Log10 reduction assay); assay type: cell-based, Staphylococcus aureus; details: for concentration of optimal efficacy: MRSA biofilm; for Quant. MBEC / log 10 reduction in biofilm CFUs: MRSA; for Quant. MBEC: >4 log10 reduction, PS alone, Blue 470 nm (Erythrosin B: Green 527 nm)
Protocol: (§5) One hundred microlitres was removed from each well of row A of the recovery plate into row A of an appropriately labelled 96-well dilution plate; 100 μL was removed from row B of this recovery plate into row A of another 96-well dilution plate. This was repeated for other utilized MBEC rows (total: up to 8 dilution plates per MBEC recovery plate). These plates were kept for the “Quantitative Determination of MBEC (Log10 Reduction Assay)” described below.
(§6) 180 μL of sterile 0.9% saline was added to each well of rows B-H of the 96-well dilution plates prepared as described above. The sample in row A was then serially diluted in the saline in rows B-H and spot plated on OSA.
(§7) The quantitative MBEC was defined as the minimum concentration of test article that yielded a particular log 10 reduction in biofilm CFUs. For MRSA, >4 log 10 reduction (which corresponds to >99.99% reduction); for S. enterica, >3 log 10 reduction (which corresponds to >99.9% reduction) or, where recovery from the VC controls was <3 log 10, “max kill”.
(§8) Quantitative MBEC results were determined using log 10 reduction. Generally, the appropriate number of colonies were counted on the spot plates according to the plating method used. An appropriate number of colonies that was considered appropriate for counting was a 20 μL spot where the individual colonies were visibly distinct from each other within the plated spot (typically 5-50 colonies). The section in which this spot was located gave the order of magnitude for the cell enumeration: 100-107.

[4] = system: Staphylococcus aureus (MRSA) 456 S. Yanke; assay: Planktonic MBC (turbidity assay), MBEC Assay challenge plate outgrowth; details: Blue 470 nm (Erythrosin B: Green 527 nm)
S. enterica biofilms [5] = assay: Quantitative determination of MBEC (Log10 reduction assay); assay type: cell-based, Salmonella enterica; details: for concentration of optimal efficacy: S. enterica biofilm; for Quant. MBEC / log 10 reduction in biofilm CFUs: S. enterica; for Quant. MBEC: >3 log10 reduction or max kill, PS alone, Blue 470 nm (Erythrosin B: Green 527 nm)
Protocol: as §5, §6, §7, §8

[6] = system: Salmonella enterica Serotype Choleraesuis (ATCC 10708); assay: Planktonic MBC (turbidity assay), MBEC Assay challenge plate outgrowth; assay type: cell-based; details: S. enterica, PS alone, Blue 470 nm (Erythrosin B: Green 527 nm)
[7] = Coloration of challenge plates under green irradiation; assay type: physicochemical; details: green irradiation 2, 5, 10 min vs dark, most evident for 0.01% and 0.001%
Protocol: FIG. 5 provides representative photographs showing coloration of challenge plates for the Green-irradiated PS (Erythrosin B) under dark conditions and with green irradiation for 2 min, 5 min and 10 min. The highest tested concentration of Erythrosin B (i.e., 1% w/v) was beet red in color, with the 1:1,000 dilution (i.e., 0.001% w/v) yielding a light pink color and minimal coloration remaining by the 1:10,000 dilution (i.e., 0.0001% w/V) (FIG. 5; left).

[8] = fluence 0 (Dark) J/cm^2, PS alone
[9] = Blue-irradiated, tested individually (FIG. 8 Panels A-C)
[10] = PS at 0.1%, 5 minutes of blue irradiation (51.0 J/cm^2)
[11] = Blue-irradiated, tested individually (FIG. 7 Panels A-C)
[12] = PS at 0.01%, 10 minutes of green irradiation (51.0 J/cm^2)
[13] = PS at 0.1%, 5 minutes of green irradiation (25.5 J/cm^2)

| SMILES | MBEC (S. enterica biofilms [1]; [8]) | MBEC (S. enterica biofilms [1]; fluence 10.2 J/cm^2, PS alone) | MBEC (S. enterica biofilms [1]; fluence 25.5 J/cm^2, PS alone) | MBEC (MRSA biofilms [2]; [8]) | MBEC (MRSA biofilms [2]; fluence 10.2 J/cm^2, PS alone) | MBEC (MRSA biofilms [2]; fluence 25.5 J/cm^2, PS alone) | concentration of optimal efficacy (MRSA biofilms [3]; [9]) | Quant. MBEC (MRSA biofilms [3]; fluence 0 (Dark) J/cm^2) | Quant. MBEC (MRSA biofilms [3]; fluence 10.2 J/cm^2) | Quant. MBEC (MRSA biofilms [3]; fluence 25.5 J/cm^2) | Quant. MBEC (MRSA biofilms [3]; fluence 51.0 J/cm^2) | MBC [4, 8] | MBC ([4]; fluence 10.2 J/cm^2, PS alone) | MBC ([4]; fluence 25.5 J/cm^2, PS alone) | Quant. MBEC (S. enterica biofilms [5]; fluence 0 (Dark) J/cm^2) | Quant. MBEC (S. enterica biofilms [5]; fluence 10.2 J/cm^2) | Quant. MBEC (S. enterica biofilms [5]; fluence 25.5 J/cm^2) | Quant. MBEC (S. enterica biofilms [5]; fluence 51.0 J/cm^2) | MBC ([6]; fluence 0 (Dark) J/cm^2) | MBC ([6]; fluence 10.2 J/cm^2) | other results |
| --- | --- | --- | --- | --- | --- | --- | --- | --- | --- | --- | --- | --- | --- | --- | --- | --- | --- | --- | --- | --- | --- |
| Cc1cc2nc3c(=O)[nH]c(=O)nc-3n(C[C@H](O)[C@H](O)[C@H](O)COP(=O)([O-])O)c2cc1C.[Na+] [PS1, Riboflavin-5′-Phosphate Sodium USP] | >1 % w/V | >1 % w/V | >1 % w/V | >1 % w/V | >1 % w/V | >1 % w/V | 0.1 % w/v | >1 % w/V | >1 % w/V | >1 % w/V | 0.1 % w/V | >1 % w/V | >1 % w/V | 0.1 (Ø) % w/V | >1 % w/V | >1 % w/V | >1 % w/V | 0.1 % w/V | >1 % w/V | >1 % w/V | MBEC (MRSA biofilms [2]; fluence 51.0 J/cm^2, PS alone): 0.1 (Ø) % w/V; log 10 reduction in biofilm CFUs (MRSA biofilms [3]; [10]): 5.36 log 10; concentration of optimal efficacy (S. enterica biofilms [5]; [11]): 0.1 % w/v; log 10 reduction in biofilm CFUs (S. enterica biofilms [5]; [10]): max kill; MBC ([6]; fluence 25.5 J/cm^2): >1 % w/V |
| O=S(=O)([O-])c1ccc(N=Nc2c(O)ccc3cc(S(=O)(=O)[O-])ccc23)cc1.[Na+].[Na+] [PS2, Sunset Yellow FCF] | >1 % w/V | >1 % w/V | >1 % w/V | >1 % w/V | >1 % w/V | >1 % w/V | 0.01 % w/v | >1 % w/V | >1 % w/V | >1 % w/V | 0.01 % w/V | >1 % w/V | >1 % w/V | >1 % w/V | >1 % w/V | >1 % w/V | >1 % w/V | 0.001 % w/V | >1 % w/V | >1 % w/V | concentration of optimal efficacy (S. enterica biofilms [5]; [11]): 0.001 % w/v; MBC ([6]; fluence 25.5 J/cm^2): >1 % w/V |
| COc1cc(/C=C/C(=O)CC(=O)/C=C/c2ccc(O)c(OC)c2)ccc1O [PS3, Curcumin] | >0.001 % w/V | >0.001 % w/V | >0.001 % w/V | >0.001 % w/V | >0.001 % w/V | >0.001 % w/V | 0.001 % w/v | >0.001 % w/V | >0.001 % w/V | >0.001 % w/V | 0.001 % w/V | >0.001 % w/V | >0.001 % w/V | >0.001 % w/V | >0.001 % w/V | >0.001 % w/V | >0.001 % w/V | 0.0001 % w/V | >0.001 % w/V | >0.001 % w/V | MBEC (S. enterica biofilms [1]; fluence 51.0 J/cm^2, PS alone): >0.001 % w/V; MBEC (MRSA biofilms [2]; fluence 51.0 J/cm^2, PS alone): >0.001 % w/V; concentration of optimal efficacy (S. enterica biofilms [5]; [11]): 0.0001 % w/v; MBC ([6]; fluence 25.5 J/cm^2): >0.001 % w/V; MBC ([6]; fluence 51.0 J/cm^2): >0.001 % w/V |
| O=C1OC2(c3ccccc31)c1cc(I)c(O)c(I)c1Oc1c2cc(I)c(O)c1I [PS4, Erythrosin B] | >1 % w/V | 0.01 (Ø) % w/V | 0.01 (Ø) % w/V | >1 % w/V |  |  |  | >1 % w/V | 0.01 % w/V |  |  |  |  |  | >1 % w/V | >1 % w/V | 0.1 % w/V | 0.01 % w/V | >1 % w/V | 0.01 (Ø) % w/V | concentration of optimal efficacy (MRSA biofilms [3]; Green irradiation, 10.2 J/cm^2 (FIG. 9)): 0.01%; concentration of optimal efficacy (MRSA biofilms [3]; Green irradiation, 25.5 J/cm^2 (FIG. 9)): 0.1%; log 10 reduction in biofilm CFUs (MRSA biofilms [3]; [12]): max kill; log 10 reduction in biofilm CFUs (MRSA biofilms [3]; [13]): 5.28 log 10; coloration upon irradiation [7]: lost coloration with increasing irradiation time; concentration of optimal efficacy (S. enterica biofilms [5]; Green irradiation, 51.0 J/cm^2 (FIG. 9)): 0.01%; log 10 reduction in biofilm CFUs (S. enterica biofilms [5]; [12]): max kill; log 10 reduction in biofilm CFUs (S. enterica biofilms [5]; [13]): max kill |
